The record followed here is patent US20230002336A1, “MrgprX2 Antagonists and Uses Thereof” (Dermira, Inc., priority 2019, published 2023).

The test concerns the target T1, Human MrgprX2 (Homo sapiens, UniProt Q96LB1).
T1 construct: expressed in transfected cells; host or cells: recombinant cells
T1 sequence (Q96LB1 1-330): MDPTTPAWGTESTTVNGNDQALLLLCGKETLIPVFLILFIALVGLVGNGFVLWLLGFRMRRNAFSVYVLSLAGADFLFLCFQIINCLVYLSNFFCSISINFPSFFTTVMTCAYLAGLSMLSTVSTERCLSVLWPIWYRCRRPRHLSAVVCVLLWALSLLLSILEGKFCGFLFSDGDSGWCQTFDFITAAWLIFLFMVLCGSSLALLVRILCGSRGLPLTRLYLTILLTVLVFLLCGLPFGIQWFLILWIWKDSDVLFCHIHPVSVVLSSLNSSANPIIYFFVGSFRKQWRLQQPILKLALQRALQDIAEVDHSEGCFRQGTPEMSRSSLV
Kind of test: FLIPR intracellular calcium mobilization antagonist assay in recombinant hMrgpMRGPRX2 expressing cells. It counts as cell-based. The settings on record: antagonist activity, read-out: Human MrgprX2 Antagonist pIC50 (converted). The source says: [Worded in the source for another species; this species is reported under the same test.] The assays used to determine potencies are functional read-out looking at intracellular calcium mobilization using the FLIPR™ technology. In these FLIPR assays, we test the identified compounds using recombinant cellular systems expressing mouse MrgprB2, mouse MrgprA1, gerbil MrgpMRGPRX2 orthologue, Chinese hamster MrgpMRGPRX2 orthologue and cynomolgus monkey MrgpMRGPRX2 orthologue, respectively for orthologue activity.
A general note: A change in cytosolic calcium serves as a functional read-out for many receptors and channels.

On to `CCN(CC(C)(C)O)C(=O)Nc1nnc(Cc2cc(F)cc(F)c2)s1` [Example E38], for which the IC50 was 39.8 nM. With `CCN(C[C@H](C)O)C(=O)Nc1nnc(Cc2cc(C)cc(F)c2)s1` [Example E22] the figure was 794 nM; with `CN(C[C@](C)(O)C(F)(F)F)C(=O)Nc1nnc(Cc2cc(F)cc(F)c2)s1` [Example E54, 3-[5-[(3,5-difluorophenyl)methyl]-1,3,4-thiadiazol-2-yl]-1-methyl-1-[(2S)-3,3,3-trifluoro-2-hydroxy-2-methyl-propyl]urea], 126 nM; with `CN(C[C@@H](O)C(F)(F)F)C(=O)Nc1nnc(Cc2cc(F)cc(Cl)c2)s1` [Example E47], 135 nM. With `O=C(Nc1nnc(Cc2cc(F)cc(F)c2)s1)N1CC[C@H](O)C1` [Example E28] the figure was 5010 nM; with `CCN(CC(C)(O)C(F)(F)F)C(=O)Nc1nnc(Cc2cccc(F)c2)s1` (single isomer, unassigned) [Example E52, 1-ethyl-3-[5-[(3-fluorophenyl)methyl]-1,3,4-thiadiazol-2-yl]-1-(3,3,3-trifluoro-2-hydroxy-2-methyl-propyl)urea], 50.1 nM; with `CCN(C[C@@H](O)C(F)(F)F)C(=O)Nc1nnc(Cc2cccc(F)c2)s1` [Example E36], 200 nM. With `CC(C)C(=O)Nc1nnc(Cc2ccc(F)cc2)s1` [Example E02] the figure was 7940 nM.

For the compound `CCN(C[C@@H](O)C(F)(F)F)C(=O)Nc1nnc(Cc2cc(F)cc(Cl)c2)s1` [Example E48], the IC50 is 14.1 nM. For `CCN(C[C@H](C)O)C(=O)Nc1nnc(Cc2cc(Cl)ccc2F)s1` [Example E34] the value was 3980 nM; for `CCN(C[C@H](C)O)C(=O)Nc1nnc(Cc2cc(F)cc(F)c2)s1` [Example E10], 251 nM; for `CCN(C[C@@H](O)C(F)(F)F)C(=O)Nc1nnc(Cc2cc(Cl)cc(Cl)c2)s1` [Example E49], 38 nM.

With `C[C@H](O)CN(C)C(=O)Nc1nnc(Cc2cc(F)cc(F)c2)s1` [Example E14], the IC50 was 2510 nM. For `CCN(C[C@@H](O)C(F)(F)F)C(=O)Nc1nnc(Cc2cc(C)cc(F)c2)s1` [Example E43] the value was 69.2 nM; for `CC1(C(=O)Nc2nnc(Cc3cc(F)cc(F)c3)s2)CCOC1` (stereo not drawn) [Example E08], 2000 nM. For `CCN(C[C@H](C)O)C(=O)Nc1nnc(Cc2cc(Cl)cc(Cl)c2)s1` [Example E32] the value was 158 nM.

On to `O=C(Nc1nnc(Cc2cc(F)cc(F)c2)s1)N1CCC(C(F)(F)F)C1` (stereo not drawn) [Example E29], for which the IC50 was 631 nM. With `CC(C)C(=O)Nc1nnc(Cc2cc(F)cc(F)c2)s1` [Example E03] the figure was 251 nM; with `CCN(C[C@H](C)O)C(=O)Nc1nnc(C(C)(C)c2cc(F)cc(F)c2)s1` [Example E59, 3-[5-[1-(3,5-difluorophenyl)-1-methyl-ethyl]-1,3,4-thiadiazol-2-yl]-1-ethyl-1-[(2S)-2-hydroxypropyl]urea], 2510 nM; with `O=C(Nc1nnc(Cc2cc(F)cc(F)c2)s1)N1CCC[C@@H]1CO` [Example E16], 2000 nM.

Regarding `CN(CC(C)(O)C(F)(F)F)C(=O)Nc1nnc(Cc2cccc(F)c2)s1` (single isomer, unassigned) [Example E51, 3-[5-[(3-fluorophenyl)methyl]-1,3,4-thiadiazol-2-yl]-1-methyl-1-(3,3,3-trifluoro-2-hydroxy-2-methyl-propyl)urea], the IC50 is 10000 nM. For `CC(C)C(=O)Nc1nnc(Cc2cccc(F)c2)s1` [Example E01, N-[5-[(3-fluorophenyl)methyl]-1,3,4-thiadiazol-2-yl]-2-methyl-propanamide] the value was 2510 nM. For `CC(CO)N(C)C(=O)Nc1nnc(Cc2cc(F)cc(F)c2)s1` (stereo not drawn) [Example E17] the value was 3980 nM; for `CCN(C[C@H](C)O)C(=O)Nc1nnc(Cc2cccc(F)c2)s1` [Example E11], 3160 nM; for `C[C@@H](O)CN(C)C(=O)Nc1nnc(Cc2cc(F)cc(F)c2)s1` [Example E15], 3980 nM. On to `CN(CC(C)(O)C(F)(F)F)C(=O)Nc1nnc(Cc2cccc(F)c2)s1` (single isomer, unassigned) [Example E50, 3-[5-[(3-fluorophenyl)methyl]-1,3,4-thiadiazol-2-yl]-1-methyl-1-(3,3,3-trifluoro-2-hydroxy-2-methyl-propyl)urea], for which the IC50 was 295 nM. Regarding `CN(CC(C)(O)C(F)(F)F)C(=O)Nc1nnc(Cc2cccc(F)c2)s1` (stereo not drawn) [Example E40, 3-[5-[(3-fluorophenyl)methyl]-1,3,4-thiadiazol-2-yl]-1-methyl-1-(3,3,3-trifluoro-2-hydroxy-2-methyl-propyl)urea], the IC50 is 316 nM. With `CN(C[C@@](C)(O)C(F)(F)F)C(=O)Nc1nnc(Cc2cc(F)cc(F)c2)s1` [Example E55], the IC50 was 10 nM. Turning to `CCN(CC(C)(O)C(F)(F)F)C(=O)Nc1nnc(Cc2cccc(F)c2)s1` (stereo not drawn) [Example E42, 1-ethyl-3-[5-[(3-fluorophenyl)methyl]-1,3,4-thiadiazol-2-yl]-1-(3,3,3-trifluoro-2-hydroxy-2-methyl-propyl)urea], the IC50 was 47.9 nM. For `CN(CC1CCCO1)C(=O)Nc1nnc(Cc2cc(F)cc(F)c2)s1` (stereo not drawn) [Example E26] the value was 1260 nM; for `CC1(C(=O)Nc2nnc(Cc3cc(F)cc(F)c3)s2)CCOCC1` [Example E07], 1000 nM; for `CN(CC1(O)CC1)C(=O)Nc1nnc(Cc2cc(F)cc(F)c2)s1` [Example E31], 1260 nM. With `CC(C)C(=O)Nc1nnc(Cc2cccc(F)c2F)s1` [Example E04] the figure was 1260 nM; with `CCN(C[C@H](C)O)C(=O)Nc1nnc(Cc2ccc(F)c(Cl)c2)s1` [Example E35], 794 nM; with `CCN(C[C@@H](O)C(F)(F)F)C(=O)Nc1nnc(Cc2cc(F)cc(F)c2)s1` [Example E23], 7.94 nM. With `CCN(C[C@H](C)O)C(=O)Nc1nnc(Cc2cccc(C)c2)s1` [Example E21] the figure was 7940 nM; with `CN(C[C@@](C)(O)C(F)(F)F)C(=O)Nc1nnc(Cc2cc(F)cc(Cl)c2)s1` [Example E56], 16.2 nM.

On to `Cc1cc(F)cc(Cc2nnc(NC(=O)N(C)C[C@@](C)(O)C(F)(F)F)s2)c1` [Example E57], for which the IC50 was 85.1 nM.

As for `CCN(C[C@H](C)O)C(=O)Nc1nnc(Cc2ccc(F)c(F)c2)s1` [Example E13], the IC50 was 2000 nM. With `CN(C[C@@H](O)C(F)(F)F)C(=O)Nc1nnc(Cc2cc(Cl)cc(Cl)c2)s1` [Example E45] the figure was 288 nM; with `CCN(C[C@H](C)O)C(=O)Nc1nnc(Cc2cc(F)ccc2F)s1` [Example E12], 2000 nM; with `CC(C)C(=O)Nc1nnc(Cc2cc(F)ccc2F)s1` [Example E05], 2510 nM. For `CN(CC1CCOC1)C(=O)Nc1nnc(Cc2cc(F)cc(F)c2)s1` (stereo not drawn) [Example E27] the value was 6310 nM. As to `CCN(CC(C)(O)C(F)(F)F)C(=O)Nc1nnc(Cc2cccc(F)c2)s1` (single isomer, unassigned) [Example E53, 1-ethyl-3-[5-[(3-fluorophenyl)methyl]-1,3,4-thiadiazol-2-yl]-1-(3,3,3-trifluoro-2-hydroxy-2-methyl-propyl)urea], the IC50 is 3390 nM. With `CC(C)C(=O)Nc1nnc(Cc2ccc(F)c(F)c2)s1` [Example E06] the figure was 1580 nM. For `CCN(C[C@@H](O)C(F)(F)F)C(=O)Nc1nnc(Cc2cccc(Cl)c2)s1` [Example E37], the IC50 was 158 nM. For `CCN(CC(C)(C)O)C(=O)Nc1nnc(Cc2cc(C)cc(F)c2)s1` [Example E46], the IC50 is 372 nM.

With `CCN(C[C@H](C)O)C(=O)Nc1nnc(Cc2cccc(F)c2F)s1` [Example E09, 3-[5-[(2,3-difluorophenyl)methyl]-1,3,4-thiadiazol-2-yl]-1-ethyl-1-[(2S)-2-hydroxypropyl]urea], the IC50 is 1580 nM. With `CCN(C[C@H](C)O)C(=O)Nc1nnc(Cc2cc(F)cc(Cl)c2)s1` [Example E24] the figure was 100 nM.

In the case of `CCN(CC(C)(C)O)C(=O)Nc1nnc(Cc2cc(F)cc(Cl)c2)s1` [Example E41], the IC50 was 16.6 nM. With `O=C(Nc1nnc(Cc2cc(F)cc(F)c2)s1)N1CCCC1` [Example E25] the figure was 7940 nM; with `CN(CC(C)(C)O)C(=O)Nc1nnc(Cc2cc(F)cc(F)c2)s1` [Example E20], 200 nM. With `CN(CC(C)(C)O)C(=O)Nc1nnc(Cc2cc(Cl)cc(Cl)c2)s1` [Example E44], the IC50 was 162 nM. In the case of `CN(CC(C)(O)C(F)(F)F)C(=O)Nc1nnc(Cc2cc(F)cc(F)c2)s1` (stereo not drawn) [Example E33], the IC50 is 15.8 nM. For `CCN(CC1(O)CC1)C(=O)Nc1nnc(Cc2cc(F)cc(F)c2)s1` [Example E30] the value was 79.4 nM; for `CC(C)NC(=O)c1nnc(Cc2cc(F)cc(F)c2)s1` [Example E58, 5-[(3,5-difluorophenyl)methyl]-N-isopropyl-1,3,4-thiadiazole-2-carboxamide], 3160 nM. For `CCN(CC(C)(C)O)C(=O)Nc1nnc(Cc2cccc(F)c2)s1` [Example E39] the value was 724 nM.
